Experimental data from paper PMC8715118, “Assessing potentiation of the (α4)3(β2)2 nicotinic acetylcholine receptor by the allosteric agonist CMPI” (The Journal of Biological Chemistry, 2021).
Like-named read-outs stand apart in the source and are kept apart here.

How the values were obtained:
[1] = molecular target: T1, (α4H116A)3(β2)2 nAChR (Homo sapiens, UniProt P17787+P43681, H142A); assay: Two-electrode voltage-clamp, oocytes expressing (α4H116A)3(β2)2 nAChR; assay type: cell-based
T1 construct: expressed in transfected cells; host or cells: Xenopus laevis oocytes injected with cRNA, 8:1 α4:β2
T1 sequence (P43681 27-627 H142A): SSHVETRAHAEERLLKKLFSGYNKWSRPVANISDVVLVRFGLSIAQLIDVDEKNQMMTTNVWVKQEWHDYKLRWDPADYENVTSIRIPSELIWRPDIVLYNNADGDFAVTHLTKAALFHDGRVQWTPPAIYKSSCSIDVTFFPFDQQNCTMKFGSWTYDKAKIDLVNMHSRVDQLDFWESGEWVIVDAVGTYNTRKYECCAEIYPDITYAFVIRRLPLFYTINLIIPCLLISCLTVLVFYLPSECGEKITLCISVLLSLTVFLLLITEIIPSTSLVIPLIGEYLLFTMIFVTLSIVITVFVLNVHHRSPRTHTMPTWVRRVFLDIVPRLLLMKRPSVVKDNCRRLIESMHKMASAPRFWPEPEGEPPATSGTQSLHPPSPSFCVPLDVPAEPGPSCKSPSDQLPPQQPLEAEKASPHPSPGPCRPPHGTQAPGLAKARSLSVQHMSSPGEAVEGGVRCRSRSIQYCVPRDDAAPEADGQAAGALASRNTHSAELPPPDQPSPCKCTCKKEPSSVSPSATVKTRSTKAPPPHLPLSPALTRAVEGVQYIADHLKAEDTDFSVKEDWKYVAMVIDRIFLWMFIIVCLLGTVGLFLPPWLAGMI
T1 sequence (P17787 26-502): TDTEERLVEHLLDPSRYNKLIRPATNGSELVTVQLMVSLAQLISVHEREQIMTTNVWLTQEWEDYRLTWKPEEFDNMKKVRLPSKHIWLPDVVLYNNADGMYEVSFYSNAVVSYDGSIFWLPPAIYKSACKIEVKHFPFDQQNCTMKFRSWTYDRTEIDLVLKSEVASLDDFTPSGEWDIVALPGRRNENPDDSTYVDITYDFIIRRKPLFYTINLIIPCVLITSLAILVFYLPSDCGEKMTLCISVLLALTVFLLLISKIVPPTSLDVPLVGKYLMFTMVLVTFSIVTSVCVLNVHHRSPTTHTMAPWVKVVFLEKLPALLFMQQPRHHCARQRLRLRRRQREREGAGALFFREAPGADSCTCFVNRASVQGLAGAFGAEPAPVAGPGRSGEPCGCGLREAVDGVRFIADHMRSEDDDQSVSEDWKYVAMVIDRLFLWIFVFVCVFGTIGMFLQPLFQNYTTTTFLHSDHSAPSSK
Protocol: (§1) Oocytes-positive female Xenopus laevis were purchased from NASCO, and all procedures were performed according to an animal use protocol approved by the Institutional Animals Care and Use Committee of The University of Texas Health Science Center at Tyler. Ovarian lobules were surgically harvested, treated with collagenase type 2, and Stage V and VI oocytes were visually selected and maintained at 18 °C in modified ND96-gentamicin buffer (96 mM NaCl, 2 mM KCl, 1.8 mM CaCl2, 1 mM MgCl2, 5 mM Hepes, and 50 μg/ml gentamicin, pH 7.6).
(§2) pSP64 Poly(A) plasmids with cDNA encoding for human α4 or β2 nAChR subunit were used to prepare cRNA transcripts suitable for oocyte expression. The plasmids were linearized with AseI (hα4) and PvuII (hβ2), then cRNA transcripts were prepared in vitro using mMESSAGE mMACHINE high yield-capped RNA transcription kits (Ambion, Thermo Fisher Scientific), purified on NucAway Spin column (Invitrogen, Thermo Fisher Scientific), and stored at −80 °C until used. Point mutations within the plasmid encoding the α4 nAChR subunit were introduced using QuikChange II Site-Directed Mutagenesis Kit (Agilent Technologies), as described previously ([28]). To generate amino acid substitutions (K64T, E66I, H116V, H116L, and H116A), two custom-designed complementary oligos containing the desired mutation were used (Integrated DNA Technologies). The forward primers were as the following with the codon for mutated amino acids are underlined and nucleotide(s) changes are bolded and italicized:
(§3) The oocytes were injected with 10 to 50 ng of a cRNA mix containing α4 (WT or mutant) and β2 RNAs at ratios of 8:1(α4:β) or 1:8 (α4:β2) to bias expression toward (α4)3(β2)2 or (α4)2(β2)3 nAChRs, respectively. The injection of oocytes with RNAs mixture containing four folds or higher α4 RNA than β2 RNA have been established to express receptor population that is made up of three α4 and two β2 subunits ([9], [12], [28], [43], [44], [45]).
(§4) 24 to 72 h after cRNA injection, Xenopus oocytes were placed in a custom-made recording chamber that is connected to an eight-channel automated perfusion system (Warner Instruments) and perfused with recording buffer (100 mM NaCl, 2 mM KCl, 1 mM CaCl2, 0.8 mM MgCl2, 1 mM EGTA, and 10 mM Hepes, pH 7.5). Unless otherwise specified in figure legends, each recording run included several drug applications (10 s of an agonist with or without CMPI or NS9283) separated by 3 to 4 min buffer wash intervals. Between recording runs, the oocytes were washed with recording buffer for at last 5 min. The oocytes were voltage-clamped at −50 mV using Oocyte Clamp OC-725B (Warner Instruments). The currents were digitized using Digidata 1550A (Axon Instruments, Molecular Devices), and the peak currents were quantified using pCLAMP 10 (Axon Instruments), then normalized and analyzed using Excel 2010 (Microsoft) and SigmaPlot 11.0 (Systat Software). For NS9283 and CMPI potentiation of agonist-induced responses, the peak currents were normalized to current elicited by agonist alone applied within the same recording run. For the effect of coapplication of 1 μM NS9283 or CMPI on agonist concentration-response curve, the peak currents were normalized to current elicited by saturating concentration of agonist applied within the same recording run. […] I0 = 100 for NS9283 and CMPI potentiation of agonist-induced responses and I0 = 0 for agonist concentration-response experiments. The best-fit values for Imax and EC50 ± SD are presented.

[2] = molecular target: T2, (α4)3(β2)2 nAChR (Homo sapiens, UniProt P17787+P43681); assay: Two-electrode voltage-clamp whole-cell currents, Xenopus oocytes expressing WT (α4)3(β2)2 nAChR; assay type: cell-based
T2 construct: expressed in transfected cells; host or cells: Xenopus laevis oocytes injected with cRNA, 8:1 α4:β2
T2 sequence (P43681 27-627): as the sequence (P43681 27-627 H142A) above, with A116H counted along it
T2 sequence (P17787 26-502): as the sequence (P17787 26-502) above
Protocol: as §1, §2, §3, §4

[3] = molecular target: T1, (α4H116A)3(β2)2 nAChR; assay: Mechanistic (Monod-Wyman-Changeux two-state model) analysis of current responses, (α4H116A)3(β2)2 nAChR; assay type: cell-based; details: α4:α4 site; for Kd: read-out: KR,CMPI
Protocol: Further analysis of electrophysiological data was conducted in the framework of the two-state concerted transition model, adapted from the MWC cyclic model originally used to describe enzyme function ([31], [32], [33]). The raw peak amplitudes of current responses were converted to units of probability of being in the active state (PA).
The numbers of α4:β2 and α4:α4 binding sites (Nα4:β2 and Nα4:α4) were constrained to 2 and 1, respectively.
The concentration-response curve for TC-2559 was fitted to the following equation:(3) PA=1/1+L[1+[TC-2559]/KR,TC-2559,α4:β2/1+[TC-2559]/(KR,TC-2559,α4:β2cTC-2559,α4:β2)]^Nα4:β2
The concentration-response data were analyzed using Equation 3, with the value of L modified to reflect receptor activation by TC-2559, and the affinity and efficacy terms in the equation reflecting the values for CMPI. The number of binding sites for CMPI in Equation 3 was constrained to 1.
Curve fitting was done using Origin 2020 (OriginLab Corp). The results are reported as best-fit parameter ±SD of the fit. All data are included in the analysis.

[4] = molecular target: T2, (α4)3(β2)2 nAChR; details: cited from earlier work
[5] = background of activity elicited by ACh
[6] = background of activity elicited by TC-2559

## Cc1c(-c2cc(-c3ccccc3Cl)no2)cnn1C1CCNCC1 [CMPI, 3-(2-chlorophenyl)-5-(5-methyl-1-(piperidin-4-yl)-1H-pyrrazol-4-yl)isoxazole]
[1]; ACh (1 mM)
  potentiation fold (Ave ± SD), agonist + 1 μM modulator / agonist alone: 1.07 ± 0.13
[1]; TC 2559 (30 μM)
  potentiation fold (Ave ± SD), agonist + 1 μM modulator / agonist alone: 0.74 ± 0.13
[1]; TC-2559-induced current, normalized to 1 μM TC-2559
  Imax of potentiation, % of control: 634 ± 77%
[1]; normalized to 1 μM TC-2559, read-out: EC50 of potentiation of TC-2559-induced current
  EC50: 200 ± 100 nM
[2]; 1 μM TC-2559
  maximal potentiation: 880 ± 13%
[2]; 1 μM TC-2559 + CMPI
  maximal potentiation equivalent, % of current elicited by 1 mM ACh: 44.6%
[2]; 1 μM cytisine
  maximal potentiation, % of control: 716 ± 59%
[2]; 1 μM modulator, ACh, nicotine, cytisine, TC-2559, p < 0.001
  effect on responses to agonists at subsaturating concentrations: potentiated
[2]; 1 μM modulator, except for TC-2559
  effect on responses to saturating concentrations of the tested agonists: did not potentiate
[2]; 1 μM nicotine
  maximal potentiation, % of control: 618 ± 34%
[2]; 10 μM TC-2559
  maximal potentiation: 634 ± 94%
[2]; 10 μM TC-2559 + CMPI
  maximal potentiation equivalent, % of current elicited by 1 mM ACh: 48.4%
[2]; ACh (1 mM), 1 μM modulator
  potentiation fold (Ave ± SD), agonist + 1 μM modulator / agonist alone: 0.81 ± 0.15
[2]; TC 2559 (30 μM), 1 μM modulator
  potentiation fold (Ave ± SD), agonist + 1 μM modulator / agonist alone: 6.41 ± 2.15
[2]; receptors activated by 1 μM cytisine, read-out: EC50 for potentiation
  EC50: 340 ± 80 nM
[2]; receptors activated by 1 μM nicotine, read-out: EC50 for potentiation
  EC50: 270 ± 40 nM
[2]; responses induced by 1 μM TC-2559, read-out: potentiation EC50
  EC50: 110 ± 10 nM
[2]; responses induced by 10 μM TC-2559, read-out: potentiation EC50
  EC50: 90 ± 40 nM
[3]; [5]
  cCMPI: 0.082 ± 0.007
  Kd: 440 ± 120 nM
[3]; [6]
  cCMPI: 0.099 ± 0.009
  Kd: 230 ± 80 nM
[4]; CMPI at 1 μM
  left-shift of the ACh concentration-response curve: ~100 fold
[4]
  direct activation of the α4β2 receptor: very weak direct activator
[4]; maximal potentiation, 10 μM ACh
  current responses to EC10 (10 μM) ACh with coapplied CMPI, % of control: 386 ± 15%
[4]; potentiation of 10 μM ACh response
  EC50: 180 ± 30 nM
